Test results published in US6469034B1, “Cyclohexenyl-ethyl-thiourea compounds for inhibiting HIV reverse transcriptase” (Parker Hughes Institute, priority 1999, dated 2002).

Molecular target: T1, purified recombinant HIV RT (Human immunodeficiency virus type 1 group M subtype B, UniProt P03366)
T1 construct: Addition of 10 mU of recombinant HIV RT
Assay: Purified RT assay, cell-free Quan-T-RT scintillation proximity assay
Assay type: biochemical
Settings: recombinant HIV RT, 37° C., 1 hour; read-out: IC50 rRT
Protocol: In the assay, a DNA/RNA template is bound to SPA beads via a biotin/strepavidin linkage. The primer DNA is a 16-mer oligo(T) which has been annealed to a poly(A) template. The primer/template is bound to a strepavidin-coated SPA bead.
^3H-TTP is incorporated into the primer by reverse transcription. […] The compound being tested was added to the reaction mixture at 0.001 μM-100 μM concentrations. […] The reaction was stopped by addition of 0.2 ml of 120 mM EDTA. The samples were counted in an open window using a Beckman LS 7600 instrument and IC50 values were calculated by comparing the measurements to untreated samples.

First: S=C(NCCc1ccccn1)Nc1ccc(Br)cn1 [Trovirdine, N-[2-(5-Bromopyridinyl)]-N′-[2-(Pyridinyl)]thiourea, reference compound]
Second: CC1(C)C2CCC(CNC(=S)Nc3ccc(Br)cn3)C1C2 (centres unmarked) [HI-444, N-[2-(5-Bromopyridinyl)]-N′-[2-(2-Myrtanyl)]thiourea]
The IC50 of the first is lower: 800 nM for the first, > 100000 nM for the second.

Tested on: multidrug resistant HIV-1 strain RT-MDR
Assay: microbe, parasite or virus in culture
Assay type: cell-based
Settings: Human immunodeficiency virus 1, PBMC, 168 h, read-out: IC50 RT-MDR
Protocol: (§1) In addition, the anti-HIV activity of the compounds was measured by determining their ability to inhibit the replication of the HIV-1 strains HTLVIIIB, RT-MDR, A17, and A17 variant in peripheral blood mononuclear cells (PBMC) from healthy volunteer donors, using the method described in Uckun et.al., 1998, Antimicrobial Agents and Chemotherapy 42:383.
(§2) Normal human peripheral blood mononuclear cells (PBMNC) from HIV-negative donors were cultured 72 hours in RPMI 1640 supplemented with 20% (v/v) heat-inactivated fetal bovine serum (FBS), 3% interleukin-2,2 mM L-glutairine, 25 mM HEPES, 2 μL, NAHCO, […] gentamicin, and 4 μg/mL phytohemagglutinin prior to exposure to HIV-1 or other HIV strain at a multiplicity of infection (MOI) of 0.1 during a one-hour adsorption period at 37° C. in a humidified 5% CO2 atmosphere. Subsequently, cells were cultured in 96-well microplates (100 μL/well; 2×10^6 cells/mL, triplicate wells) in the presence of various inhibitor concentrations. Aliquots of culture supernatants were removed from the wells on the 7th day after infection for p24 antigen p24 enzyme immunoassays (EIA), as previously described in Erice et al., 1993, Antimicrob. Ag. Chemotherapy 37:385-838. The applied p24 EIA was the unmodified kinetic assay commercially available from Coulter Corporation/Immunotech, Inc. (Westbrook, Me.). Percent inhibition of viral replication was calculated by comparing the p24 values from the test substance-treated infected cells with p24 values from untreated infected cells (i.e, virus controls).
(§3) RT-MDR was obtained through the AIDS Research and Reference Reagent Program, from Dr. Bendan Larder, and is described in Larder et al., 1993, Nature, 365, 451-453.

First: Cc1ccnc2c1NC(=O)c1cccnc1N2C1CC1 [Nevirapine, reference compound]
Second: CC(C)Nc1cccnc1N1CCN(C(=O)c2cc3cc(NS(C)(=O)=O)ccc3[nH]2)CC1 [Delavirdine, reference compound]
The IC50 of the first is 12-fold higher: 5000 nM for the first, 400 nM for the second.

Same assay, conditions: Human immunodeficiency virus 1, PBMC, read-out: IC50 against RT-MDR

Compared with `Cc1ccnc2c1NC(=O)c1cccnc1N2C1CC1` [Nevirapine, reference compound], `CC(C)Nc1cccnc1N1CCN(C(=O)c2cc3cc(NS(C)(=O)=O)ccc3[nH]2)CC1` [Delavirdine, reference compound] is 12-fold lower in IC50: 5000 nM for the first, 400 nM for the second.

Same assay, conditions: ranking order of potency; read-out: IC50 against RT-MDR

Going from `Cc1cn([C@H]2C[C@H](N=[N+]=[N-])[C@@H](CO)O2)c(=O)[nH]c1=O` [AZT, reference compound] to `S=C(NCCc1ccccn1)Nc1ccc(Br)cn1` [Trovirdine, N-[2-(5-Bromopyridinyl)]-N′-[2-(Pyridinyl)]thiourea, reference compound], the IC50 falls from 200 nM to 20 nM (10-fold).

Tested on: not listed separately
Assay: Microculture tetrazolium assay (MTA, XTT) for cytotoxicity
Assay type: cell-based
Settings: cytotoxicity, XTT

Compared with `Cc1cn([C@H]2C[C@H](N=[N+]=[N-])[C@@H](CO)O2)c(=O)[nH]c1=O` [AZT, reference compound], `Cc1ccnc2c1NC(=O)c1cccnc1N2C1CC1` [Nevirapine, reference compound] is lower in CC50: > 100000 nM for the first, 10500 nM for the second.

Compared with `CC(C)Nc1cccnc1N1CCN(C(=O)c2cc3cc(NS(C)(=O)=O)ccc3[nH]2)CC1` [Delavirdine, reference compound], `S=C(NCCc1ccccn1)Nc1ccc(Br)cn1` [Trovirdine, N-[2-(5-Bromopyridinyl)]-N′-[2-(Pyridinyl)]thiourea, reference compound] is higher in CC50: 3600 nM for the first, > 100000 nM for the second.

Tested on: RT Y181C mutant A17 strain
Assay: microbe, parasite or virus in culture
Assay type: cell-based, HIV-1
Settings: Human immunodeficiency virus 1, PBMC, 168 h, read-out: IC50 A17
Protocol: as §1, §2, §3

First: Cc1ccnc2c1NC(=O)c1cccnc1N2C1CC1 [Nevirapine, reference compound]
Second: CC(C)Nc1cccnc1N1CCN(C(=O)c2cc3cc(NS(C)(=O)=O)ccc3[nH]2)CC1 [Delavirdine, reference compound]
The IC50 of the first is higher: > 100000 nM for the first, 50000 nM for the second. The second is the more potent here.

Same assay, conditions: p24 production in PBMC, day 7; read-out: IC50 A17

Compared with `Cc1cn([C@H]2C[C@H](N=[N+]=[N-])[C@@H](CO)O2)c(=O)[nH]c1=O` [AZT, reference compound], `S=C(NCCc1ccccn1)Nc1ccc(Br)cn1` [Trovirdine, N-[2-(5-Bromopyridinyl)]-N′-[2-(Pyridinyl)]thiourea, reference compound] is 83-fold higher in IC50: 6 nM for the first, 500 nM for the second.

Tested on: A17 variant with both Y181C and K103N mutations in RT
Assay: microbe, parasite or virus in culture
Assay type: cell-based, HIV-1
Settings: Human immunodeficiency virus 1, PBMC, 168 h, read-out: IC50 A17 variant
Protocol: as §1, §2, §3

`Cc1ccnc2c1NC(=O)c1cccnc1N2C1CC1` [Nevirapine, reference compound] and `CC(C)Nc1cccnc1N1CCN(C(=O)c2cc3cc(NS(C)(=O)=O)ccc3[nH]2)CC1` [Delavirdine, reference compound] cannot be ordered by IC50: > 100000 nM for the first, > 100000 nM for the second.

Same assay, conditions: p24 production in PBMC, day 7; read-out: IC50 A17 variant

In the case of `S=C(NCCc1ccccn1)Nc1ccc(Br)cn1` [Trovirdine, N-[2-(5-Bromopyridinyl)]-N′-[2-(Pyridinyl)]thiourea, reference compound], the IC50 is reported as > 100000 nM.

Tested on: HIV-1 strain HTLVIIIB
Assay: Inhibition of HIV p24 antigen production in PBMC, strain HTLVIIIB
Assay type: cell-based
Settings: Human immunodeficiency virus 1, PBMC, 168 h, read-out: IC50 HTLVIIIB
Protocol: as §1, §2, §3

Going from `Cc1ccnc2c1NC(=O)c1cccnc1N2C1CC1` [Nevirapine, reference compound] to `CC(C)Nc1cccnc1N1CCN(C(=O)c2cc3cc(NS(C)(=O)=O)ccc3[nH]2)CC1` [Delavirdine, reference compound], the IC50 falls from 34 nM to 9 nM (3.8-fold). The second is the more potent here.

Same assay, conditions: p24 production in PBMC, day 7; read-out: IC50 HTLVIIIB

`S=C(NCCc1ccccn1)Nc1ccc(Br)cn1` [Trovirdine, N-[2-(5-Bromopyridinyl)]-N′-[2-(Pyridinyl)]thiourea, reference compound] gave an IC50 of 7 nM.

Tested on: not given
Assay: not given
Settings: not given

`CC1(C)C2CCC(CNC(=S)Nc3ccc(Br)cn3)C1C2` (centres unmarked) [HI-444, N-[2-(5-Bromopyridinyl)]-N′-[2-(2-Myrtanyl)]thiourea] gave a melting point of 180 to 181 °C.
